Results as given in patent publication US20120128860A1, “PREPARATION OF VEGETABLE MATERIAL AND FOOD PRODUCTS” (priority 2009, published 2012).

Tested on: tobacco plants (Nicotiana tabacum)
Assay: Chlorophyll a and b content of tobacco leaves after pre-harvest kinetin treatment, soaking and storage
Format: in vivo
Set-up: reduction after 27 d (chlorophyll): concentration or dose not given beside the values
Settings: cytokinin 5 days pre-harvest; for reduction after 27 d (chlorophyll): 27 d storage; for chlorophyll level after 0 d storage / chlorophyll level after 3 d storage / chlorophyll level after 7 d storage / chlorophyll level after 10 d storage / chlorophyll level after 14 d storage / chlorophyll level after 20 d storage / chlorophyll level after 27 d storage: stored 4° C. dark
Protocol: Determination of chlorophyll contents of fresh leaves using a spectrophotometer. Procedure: • 1. Homogenisation of plant tissue (100 mg) in liquid nitrogen. For each data point at least three biological samples were harvested. • 2. Addition of 400 microliter acetone in 10 micromolar KOH and subsequent vortexing • 3. Centrifugation of the homogenate at 13,000 rpm for 10 min to remove cell debris and proteins • 4. Transfer of the supernatant into new test tubes • 5. Addition 200 microliter of extraction mixture to the pellet as mentioned above and vortexing • 6. Centrifugation of the homogenate at 13,000 rpm for 10 min • 7. Mix of the supernatant with the supernatant from step 4 • 8. Repeat of steps 5-7 three times until the pellet is completely white • 9. Dilution of the sample 1:10 in acetone and measurement of absorption at 664, 646/7 and 750 nm in a spectrophotometer. All absorbance measurements at the indicated wavelength need subtraction of the absorbance at 750 nm. Calculation of the chlorophyll contents by comparing with calibration curves.
Determination of chlorophyll contents of leaves by HPLC. Procedure: • 1. Homogenisation of 100 mg plant material in liquid nitrogen in a test tube • 2. Addition of 500 microliter acetone with 10 micromolar KOH and vortexing. • 3. Centrifugation of the suspension for 10 min at 4° C. at 13.000 rpm. • 4. The supernatant is transferred into new test tube • 5. Addition of 500 microliter acetone to the pellet and resuspension of the pellet • 6. Centrifugation for 10 min at 4° C. at 13.000 rpm. • 7. The supernatant is combined with the supernatant from step 4 • 8. The samples are vortexed and centrifuged for 10 min at 4° C. at 13,000 rpm. • 9. A 40 microliter aliquot of the extract is mixed with 160 microliter water • 10. The sample is transferred into a HPLC vial • 11. An aliquot of 10-100 microliter is injected into the HPLC column (RP C18 column) • 12. Running buffers: Acetonitril/H2O/triethylamine (1798:200:2) and ethyl acetate
Objective of the experiments: to combine effects of pre-harvest treatment of tobacco plants with the growth hormone kinetin and subsequently soaking with a buffer solution on the stability of chlorophyll after heat treatment followed by different storage periods.
A 1 mM kinetin solution in water was made by dissolving kinetin dropwise with 10 microliter 1M NaOH, then the solution was neutralized to pH 7.0 with HCl. This 1 mM kinetin aqueous solution was injected into the leaves of growing tobacco plants (Nicotiana tabacum). The application of cytokinin was repeated once a day for five successive days. At day 7, tobacco leaves were harvested and stored in aluminium foils. Control plants were treated with the same solution at pH 7.0 (in water), but without kinetin.
After harvest, leaves of the harvested plants (both treated with cytokinin, as well as the control plants) were separated in batches, which were subsequently treated at different temperatures in one the following ways: • 1. leaves were soaked in tap water during 1 minute at room temperature; • 2. leaves were soaked in a buffer solution of pH 7.2 during 1 minute at room temperature; • 3. leaves were soaked in tap water during 1 minute at 70° C.; • 4. leaves were soaked in a buffer solution of pH 7.2 during 1 minute at 70° C.; • 5. leaves were soaked in tap water during 1 minute at 90° C.; • 6. leaves were soaked in a buffer solution of pH 7.2 during 1 minute at 90° C.;
Immediately after each of these steps, the soaked leaves were cooled shortly in a cold tap water bath at 3° C.
The aqueous buffer solution contained 137 mM NaCl, 2.7 mM KCL, 10 mM Na2HPO4 and 2 mM KH2PO4, and was adjusted to pH 7.2 with more hydrogen phosphate or dihydrogenphosphate if required.
Finally the chlorophyll content of the leaves was quantified after storage in tissue papers at 4° C. in the dark at various moments in time. […]

[1] = soaked 1 min in buffer pH 7.2 at 70° C.
[2] = soaked 1 min in buffer pH 7.2 at 90° C.
[3] = soaked 1 min in buffer pH 7.2 at room temperature
[4] = soaked 1 min in water at 70° C.
[5] = soaked 1 min in water at 90° C.
[6] = soaked 1 min in water at room temperature

c1coc(CNc2ncnc3[nH]cnc23)c1 [cytokinin, 6-furfurylaminopurine]
reduction after 27 d (chlorophyll) [1]: 11%
chlorophyll level after 0 d storage [1]: 18 micromole per gram fresh weight
chlorophyll level after 3 d storage [1]: 17.5 micromole per gram fresh weight
chlorophyll level after 7 d storage [1]: 17.2 micromole per gram fresh weight
chlorophyll level after 10 d storage [1]: 17 micromole per gram fresh weight
chlorophyll level after 14 d storage [1]: 17 micromole per gram fresh weight
chlorophyll level after 20 d storage [1]: 16.8 micromole per gram fresh weight
chlorophyll level after 27 d storage [1]: 16 micromole per gram fresh weight
chlorophyll level after 0 d storage [2]: 18 micromole per gram fresh weight
chlorophyll level after 3 d storage [2]: 17.5 micromole per gram fresh weight
chlorophyll level after 7 d storage [2]: 17 micromole per gram fresh weight
chlorophyll level after 10 d storage [2]: 16.5 micromole per gram fresh weight
chlorophyll level after 14 d storage [2]: 16 micromole per gram fresh weight
chlorophyll level after 20 d storage [2]: 15.5 micromole per gram fresh weight
chlorophyll level after 27 d storage [2]: 15 micromole per gram fresh weight
reduction after 27 d (chlorophyll) [3]: 17%
chlorophyll level after 0 d storage [3]: 18.5 micromole per gram fresh weight
chlorophyll level after 3 d storage [3]: 17.5 micromole per gram fresh weight
chlorophyll level after 7 d storage [3]: 16.5 micromole per gram fresh weight
chlorophyll level after 10 d storage [3]: 15.5 micromole per gram fresh weight
chlorophyll level after 14 d storage [3]: 16 micromole per gram fresh weight
chlorophyll level after 20 d storage [3]: 15.5 micromole per gram fresh weight
chlorophyll level after 27 d storage [3]: 15 micromole per gram fresh weight
chlorophyll level after 0 d storage [4]: 17.5 micromole per gram fresh weight
chlorophyll level after 3 d storage [4]: 17 micromole per gram fresh weight
chlorophyll level after 7 d storage [4]: 16.5 micromole per gram fresh weight
chlorophyll level after 10 d storage [4]: 16.5 micromole per gram fresh weight
chlorophyll level after 14 d storage [4]: 16 micromole per gram fresh weight
chlorophyll level after 20 d storage [4]: 16 micromole per gram fresh weight
chlorophyll level after 27 d storage [4]: 15.5 micromole per gram fresh weight
reduction after 27 d (chlorophyll) [5]: 50%
chlorophyll level after 0 d storage [5]: 15 micromole per gram fresh weight
chlorophyll level after 3 d storage [5]: 13.5 micromole per gram fresh weight
chlorophyll level after 7 d storage [5]: 12.5 micromole per gram fresh weight
chlorophyll level after 10 d storage [5]: 11 micromole per gram fresh weight
chlorophyll level after 14 d storage [5]: 9.8 micromole per gram fresh weight
chlorophyll level after 20 d storage [5]: 8.8 micromole per gram fresh weight
chlorophyll level after 27 d storage [5]: 7.5 micromole per gram fresh weight
reduction after 27 d (chlorophyll) [6]: 9%
chlorophyll level after 0 d storage [6]: 18 micromole per gram fresh weight
chlorophyll level after 3 d storage [6]: 17.8 micromole per gram fresh weight
chlorophyll level after 7 d storage [6]: 17.2 micromole per gram fresh weight
chlorophyll level after 10 d storage [6]: 16.5 micromole per gram fresh weight
chlorophyll level after 14 d storage [6]: 16.2 micromole per gram fresh weight
chlorophyll level after 20 d storage [6]: 16 micromole per gram fresh weight
chlorophyll level after 27 d storage [6]: 16 micromole per gram fresh weight
